This note sets out measurements from US5739162A, “Carbamoylmethylurea derivatives” (Shionogi & Co., Ltd., priority 1994, dated 1998).

Molecules are shown by their SMILES. Structures can show the parent of a compound that is named as a salt. A value given as a limit tells only on which side of the number the result lay.

For one assay, the target named is T1, CCK-B receptor (Mus musculus, UniProt P56481).
T1 construct: crude membrane specimen from mouse cerebral cortex; from tissue; host or cells: cerebral cortex of male ddY mice, crude membranes
T1 sequence (P56481 1-453): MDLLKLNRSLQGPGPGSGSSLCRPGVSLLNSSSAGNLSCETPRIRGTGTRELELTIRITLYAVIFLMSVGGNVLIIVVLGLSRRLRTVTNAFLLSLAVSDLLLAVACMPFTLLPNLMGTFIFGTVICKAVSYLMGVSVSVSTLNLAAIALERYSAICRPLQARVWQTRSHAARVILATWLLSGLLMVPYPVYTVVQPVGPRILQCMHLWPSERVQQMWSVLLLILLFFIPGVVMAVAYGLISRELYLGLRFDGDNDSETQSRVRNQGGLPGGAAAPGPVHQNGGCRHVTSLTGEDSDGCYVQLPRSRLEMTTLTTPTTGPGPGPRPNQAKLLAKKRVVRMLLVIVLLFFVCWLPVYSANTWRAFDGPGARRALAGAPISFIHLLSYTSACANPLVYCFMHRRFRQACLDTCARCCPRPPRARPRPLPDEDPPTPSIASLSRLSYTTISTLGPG
Nature of the assay: CCK-B receptor antagonism: displacement of [3H]CCK-8 from crude membrane of cerebral cortex. The format is binding, mouse (male ddY). To be noted: [3H]CCK-8 1 nM, 90 min, 25° C. The protocol:
(§1) The pharmacological effect of compounds (I) prepared in Examples above were evaluated in vitro with respect to antagonistic activity against gastrin receptor, CCK-B receptor or CCK-A receptor, using fundic gland cells of guinea pig, crude membrane specimen from mouse cerebral cortex, or crude membrane specimen from mouse pancreas, respectively.
(§2) Male Hartley guinea pig (450-600 g) or male ddY mouse (24-30 g) were used.
(§3) (2) CCK-A Receptor Antagonism and CCK-B Receptor Antagonism Preparation of CCK receptor preparations Male ddY mice (24 to 30 g) were killed by decapitation and cerebral cortex (CCK-B) and pancreas (CCK-A) were extracted immediately. Each of cerebral cortex and pancreas was mixed with 50 mM Tris-HCl buffer (pH 7.4) and homogenized with a teflon-glass homogenizer and polytron homogenizer to obtain crude membrane specimens.
(§4) Preparation of test compounds and procedures of displacing assay
(§5) A 1M solution of a compound to be tested in DMSO is prepared and diluted with 50% DMSO to obtain a ten-fold dilution series.
(§6) The reaction is initiated by the addition of crude membrane specimen to solutions of different concentration each containing [^3 H]CCk-8 (final concentration, 1 nM). The mixture is incubated for 90 min at 25° C., filtered through glass filter with aspiration and washed with a cooled 50 mM Tris buffer. After the addition of Aquazol-2 cocktail the radioactivity is counted. The same procedure was repeated using 50% DMSO solution or Ceruletide (final concentration, 1 μM) instead of a solution of test compound so as to obtain the control value regarding total binding or the value regarding non-specific binding, respectively.
(§7) The IC50 was determined by plotting the ratio (%) of specific binding of a test compound to that of control on semilogarithmic graph and obtaining the concentration corresponding to 50%, wherein: specific binding of control=total binding (cpm)--non-specific binding (cpm); and specific binding of test compound=total binding (cpm)--non-specific binding (cpm).
On the technique in general: In a radioligand displacement assay an active substance lowers the binding of a labelled ligand.

In the next assay the target is T2, gastrin receptor (Cavia porcellus, UniProt H0VZC5).
T2 construct: stomach was extracted from each animal immediately, from which gastric glands were prepared; from tissue; host or cells: gastric (fundic) glands of male Hartley guinea pigs
T2 sequence (H0VZC5 1-426): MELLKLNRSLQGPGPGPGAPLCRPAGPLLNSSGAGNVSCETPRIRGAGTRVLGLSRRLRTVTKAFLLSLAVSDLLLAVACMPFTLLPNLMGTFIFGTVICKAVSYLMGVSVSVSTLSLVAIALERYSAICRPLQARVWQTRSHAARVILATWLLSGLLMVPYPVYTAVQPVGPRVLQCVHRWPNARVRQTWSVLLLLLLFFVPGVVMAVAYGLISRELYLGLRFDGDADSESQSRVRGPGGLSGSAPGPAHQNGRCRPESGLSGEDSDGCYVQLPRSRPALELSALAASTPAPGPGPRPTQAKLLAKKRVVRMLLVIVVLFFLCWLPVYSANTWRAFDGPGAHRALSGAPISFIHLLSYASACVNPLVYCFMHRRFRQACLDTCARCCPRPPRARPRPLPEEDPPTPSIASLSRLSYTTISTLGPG
The assay is described as follows: Gastrin receptor antagonism: displacement of 125I-labeled gastrin from gastric glands. It is filed as binding, guinea pig (male Hartley). To be noted: guinea pig fundic gastric glands; 125I-gastrin 0.2 nM; 30 min, 25° C. The protocol: as §1, §2
(1) Gastrin Receptor Antagonism
Preparation of gastric glands
Male Hadley guinea pigs (450-600 g) were killed by bleeding and stomach was extracted from each animal immediately, from which gastric glands were prepared.
Preparation of test compounds and procedures of displacing assay A 1M solution of a compound to be tested in DMSO is prepared and diluted with 50% DMSO to obtain a ten-fold dilution series.
The reaction is initiated by the addition of gastric glands to solutions of different concentration each containing ^125 I-labeled gastrin (final concentration, 0.2 nM). The mixture is incubated for 30 min at 25° C., centrifuged at 2000 rpm for 5 min and the supernatant is removed by aspiration. To the pellet is added ice-cooled incubation buffer and mixed gently, followed by an immediate centrifugation and removal of the supernatant by aspiration. The radioactivity is counted on gamma counter. The same procedure was repeated using 50% DMSO solution or human gastrin I (final concentration, 2 μM) instead of a solution of test compound so as to obtain the control value regarding total binding or the value regarding non-specific binding, respectively.
as §7

A further assay concerns the target T3, CCK-A receptor (Mus musculus, UniProt O08786).
T3 construct: crude membrane specimen from mouse pancreas; from tissue; host or cells: pancreas of male ddY mice, crude membranes
T3 sequence (O08786 1-436): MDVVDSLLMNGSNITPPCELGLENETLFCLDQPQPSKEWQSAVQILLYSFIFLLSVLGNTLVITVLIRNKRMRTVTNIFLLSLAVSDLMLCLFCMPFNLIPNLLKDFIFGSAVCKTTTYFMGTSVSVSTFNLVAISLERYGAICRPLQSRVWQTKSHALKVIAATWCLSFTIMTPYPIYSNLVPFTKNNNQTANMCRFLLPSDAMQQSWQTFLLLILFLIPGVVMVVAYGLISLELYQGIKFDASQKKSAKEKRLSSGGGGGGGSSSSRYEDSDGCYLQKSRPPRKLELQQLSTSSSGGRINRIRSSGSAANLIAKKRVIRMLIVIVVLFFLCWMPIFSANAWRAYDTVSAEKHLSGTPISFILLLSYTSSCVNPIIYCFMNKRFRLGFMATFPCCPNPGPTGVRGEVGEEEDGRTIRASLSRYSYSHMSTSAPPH
The assay is described as follows: CCK-A receptor antagonism: displacement of [3H]CCK-8 from crude membrane of pancreas. To be noted: [3H]CCK-8 1 nM, 90 min, 25° C. It is filed as binding, mouse (male ddY). The protocol:
as §1, §2, §3, §4, §5, §6, §7

A further assay concerns gastric acid secretion. The assay is described as follows: Inhibitory effect on pentagastrin-stimulated gastric acid secretion in anesthetized rat (perfused stomach, Schild method). It is filed as in vivo, rat (Sprague Dawley). To be noted: intraduodenal (i.d.), 0.5% M.C. suspension. The source says: Anti-acid secreting function of carbamoylmethylurea derivative (I) of the present invention has been confirmed by the in vivo experiment (cf. Schild Method; Experiment 1 below). […] From the results of these experiments, it is apparent that the carbamoylmethylurea derivative (I) has an anti-acid secreting function, and is an excellent gastrin receptor antagonist and/or CCK-B receptor antagonist which has enough functional separativeness from CCK-A receptor.
Experiment 1 In Vivo Test
Evaluation of Inhibitory Effect on Gastric Acid Secretion by Child Method
Twenty four hour starved (ad libitum for water) male Sprague Daily rats (8-week-old) were anesthetized with urethane (1.5 g/kg S.C.) and kept breathing with esophagus cannulas. After laparotomy, esophagus cannulas were inserted orally up to proventriculus and ligated around gastric cardiac. Perfusion cannulas were inserted from duodenum into stomach and ligated around pylorus. Another cannulas were placed into duodenum and ligated for administration of drug. After sutra of abdomen, stomach was perfused via the esophagus cannulas with physiological saline (37° C.) while collecting perfusate for a 15 min interval. The perfusate was subjected to titration with 0.001N NaOH solution to determine the acidity. When the basal acid secretion became stable, pentagastrin ([…])was administered in a sustained manner via common carotid vein for about 90 min until the acid secretion reached approximately the highest level, when a test compound (0.5% M.C. suspension) was administered into duodenum through cannulas. The perfusate was collected for a 15 min interval to monitor the acid secretion for 90 min. The percent inhibition was calculated as follows:
Percent inhibition (%)=100×(A-B)/(C-B)
A: the minimum value of total acidity observed after the administration of a test compound;
B: the total acidity obtained immediately before the administration of pentagastrin; and
C: the total acidity obtained immediately before the administration of a test compound.

As for `CC(C)(C)OC(=O)CN(C(=O)CNC(=O)Nc1cccc(-c2nnn(C(c3ccccc3)(c3ccccc3)c3ccccc3)n2)c1)c1ccccc1C(=O)c1ccccc1` [Compound 7f, 2-(N-(tert-Butoxycarbonylmethyl)-N'-(m-(2-(triphenylmethyl)tetrazol-5-yl)phenyl)ureidomethylcarbonylamino)benzophenone], the IC50 on CCK-B receptor stood at 8 nM; at gastrin receptor, 1 nM; at CCK-A receptor it was 1650 nM.

As for `C=CCOC(=O)c1cccc(NC(=O)NCC(=O)N(CC(=O)NC(C)(C)C)c2ccccc2C(=O)c2ccccc2)c1` [Compound 16a, 2-(N-(tert-Butylcarbamoylmethyl)-N'-(m-(aryloxycarbamoyl)phenyl)ureidomethylcarbonylamino)benzophenone], the results for the IC50 on CCK-B receptor, on gastrin receptor and on CCK-A receptor were 215 nM, 25 nM and 4400 nM, respectively.

Take `CC(C)(C)OC(=O)CN(C(=O)CNC(=O)Nc1cccc(OCC(=O)O)c1)c1ccccc1C(=O)c1ccccc1` [Compound 8j, 2-(N-(tert-Butoxycarbonylmethyl)-N'-(m-(carboxymethyloxy)phenyl)ureidomethylcarbonylamino)benzophenone]: the results for the IC50 on CCK-B receptor, at gastrin receptor and at CCK-A receptor were 8 nM, 3 nM and 2200 nM, respectively.

As to `CC(C)(C)OC(=O)CN(C(=O)CNC(=O)Nc1cccc(C(F)(F)F)c1)c1ccccc1C(=O)C1CCCCC1` [Compound 15b, Cyclohexyl-(2-(N-(t-butoxycarbonylmethyl)-N-(N'-(m-trifluoromethylphenyl)ureidomethylcarbonyl)amino)phenyl)ketone], the IC50 at CCK-B receptor came to 6 nM; on gastrin receptor, 5 nM; at CCK-A receptor, 1150 nM. In the assay on gastric acid secretion (Rattus norvegicus), this compound yielded a 50% effective dose (ED50) of 0.026 mg/kg.

Turning to `CC(C)(C)NC(=O)CN(C(=O)CNC(=O)Nc1cccc(C(=O)O)c1)c1ccccc1C(=O)c1ccccc1` [Compound 16b, 2-(N-(tert-Butylcarbamoylmethyl)-N'-(m-carboxyphenyl)ureidomethylcarbonylamino)benzophenone], the concentration for half-maximal inhibition (IC50) at CCK-B receptor was 210 nM; at gastrin receptor, 6 nM; on CCK-A receptor, above 10000 nM.

Consider `CC(C)(C)OC(=O)CN(C(=O)CNC(=O)Nc1ccc(Cl)cc1)c1ccccc1C(=O)c1ccccc1` [Compound 7y, 2-(N-(tert-Butoxycarbonylmethyl)-N'-(p-chlorophenyl)ureidomethylcarbonylamino)benzophenone], for which the 50% inhibitory concentration (IC50) is 190 nM on CCK-B receptor, 42 nM on gastrin receptor and 1800 nM at CCK-A receptor.

Consider `Cc1ccc(NC(=O)NCC(=O)N(CC(=O)OC(C)(C)C)c2ccccc2C(=O)c2ccccc2)cc1` [Compound 7z, 2-(N-(tert-Butoxycarbonylmethyl)-N'-(p-tolyl)ureidomethylcarbonylamino)benzophenone], for which the IC50 on CCK-B receptor was determined as 66 nM; at gastrin receptor, 6 nM; on CCK-A receptor, 1900 nM.

For the compound `CC(C)(C)OC(=O)CN(C(=O)CNC(=O)Nc1cccc(CC(=O)O)c1)c1ccccc1C(=O)c1ccccc1` [Compound 8i, 2-(N-(tert-Butoxycarbonylmethyl)-N'-(m-(carboxymethyl)phenyl)ureidomethylcarbonylamino)benzophenone], the 50% inhibitory concentration (IC50) at CCK-B receptor was 3 nM; at gastrin receptor it was 2 nM; on CCK-A receptor, 1700 nM.

As to `CC(C)(C)OC(=O)CN(C(=O)CNC(=O)Nc1cccc(C(=O)O)c1)c1ccccc1C(=O)C1CCCCC1` [Compound 15d, Cyclohexyl-(2-(N-(t-butoxycarbonylmethyl)-N-(N'-(m-carboxyphenyl)ureidomethylcarbonyl)amino)phenyl)ketone], the IC50 on CCK-B receptor was determined as 6 nM; at gastrin receptor, 3 nM; at CCK-A receptor, 2000 nM.

Regarding `CC(C)(C)OC(=O)CN(C(=O)CNC(=O)Nc1cccc(C(=O)O)c1)c1ccccc1C(=O)c1ccccc1` [Compound 8hb, 2-[(tert-Butoxycarbonylmethyl)-[3-(m-(carboxyphenyl)ureidomethylcarbonyl]]aminobenzophenone calcium salt], the concentration for half-maximal inhibition (IC50) at CCK-B receptor was found to be 54 nM; at gastrin receptor, 3 nM. Also, the “Inhibitory Effect on acid secretion in rat ED50, i.d.” value with gastric acid secretion (calcium salt) amounted to 7 µg/kg.

Take `COC(=O)Cc1cccc(NC(=O)NCC(=O)N(CC(=O)OC(C)(C)C)c2ccccc2C(=O)c2ccccc2)c1` [Compound 9m]: the values for the IC50 at CCK-B receptor, at gastrin receptor and on CCK-A receptor were 11 nM, 2 nM and 1350 nM, respectively.

For orientation: IC50 means the concentration needed to halve the response being measured. As usually defined, the ED50 is the midpoint of the dose-response relation.
